Assay results: US5753694A, “Anticonvulsant derivatives useful in treating amyotrophic lateral sclerosis (ALS)” (Ortho Pharmaceutical Corporation, priority 1997, dated 1998)
Where two headings read alike, the source gives them in different places.

What was measured:
[1] = system: AMPA/kainate subtype of glutamate receptors; assay: Antagonism of kainate-evoked currents, perforated whole-cell patch-clamp on primary cultures of hippocampal neurons; type: cell-based, rat; conditions: for EC50: cultured fetal rat hippocampal neurons
Description: Johnson Pharmaceutical Research Institute, Internal Research Reports, Document ID Accession Numbers A500,960 and 398533:1). In these studies, primary cultures enriched in neurons derived from the hippocampus of fetal rats were grown in vitro for 14 to 21 days under conditions that allowed them to reach a high density and develop numerous synaptic contacts. Perforated whole-cell patch-clamp procedures were used to study electrical properties of the neuronal membranes. In this procedure electrical contact between the recording electrode and the intracellular fluid is achieved by using amphotericin B to form pores in the cell membrane. This enables the cell membrane potential or current flow across the cell membrane to be recorded accurately. Kainate, topiramate and other test compounds were microperfused onto the neurons using a multi-barrel Teflon concentration clamp pipette. Topiramate (dissolved in DMSO at 1M, then diluted in the medium in which the neurons were incubated) was applied at concentrations of […] kainate was applied at concentrations 0.1 or 1 mM.
In an initial set of experiments, the antagonistic action of topiramate on kainate-evoked currents was determined as a function of the membrane potential.
The time-course of topiramate's antagonistic activity was evaluated in a second set of experiments. Kainate was pulsed into the bathing fluid for 3 sec at 1 min intervals, and once a baseline for the kainate-evoked current was established topiramate was applied constantly for a period ranging from a few min to 20 min. […] Concentration-response curves were generated for both phases of topiramate's blocking effect. The EC50 was approximately 1 micromolar for each phase. However, the concentration required for a maximum response was approximately 0.1 mM for the first phase (phase I block) but only approximately 0.010 mM for second (phase II block).
Because of the compelling evidence that the functional state of glutamate receptors is regulated partly by protein kinases and phosphatases (L. Y. WANG, F. A. TAVERNA, X. P. HUANG, J. F. MACDONALD, and D. R. HAMPSON, Science 259, 1173-1175, 1993), the phase II blocking effect could be explained by dephosphorylation of the kainate-activated receptors. Based on evidence that cAMP-dependent protein kinase (PKA) modulates kainate activated receptors(L. Y. WANG, F. A. TAVERNA, X. P. HUANG, J. F. MACDONALD, and D. R. HAMPSON, Science 259, 1173-1175, 1993), a set of experiments was undertaken to determine if dibutyryl cyclic AMP could restore the excitatory activity of kainate subsequent to topiramate's phase II block; i.e., cause the "irreversible" effect to be reversed. […] In another set of experiments the nonspecific phosphatase inhibitor okadaic acid was applied at 1 micromolar prior to, and during, the application of topiramate to determine if inhibiting the dephosphorylation of the kainate activated receptors would prevent the phase II blocking effect of topiramate.

[2] = system: rodent models of epilepsy; conditions: several rodent models of epilepsy; cited from earlier work
[3] = system: human epilepsy; conditions: clinical trials of human epilepsy; cited from earlier work
[4] = system: animal model of kindled epilepsy; conditions: cited from earlier work
[5] = 1 micromolar, prior to and during topiramate

CCCC(=O)Nc1ncnc2c1ncn2[C@@H]1O[C@@H]2COP(=O)(O)O[C@H]2[C@H]1OC(=O)CCC [dibutyryl cyclic AMP]
restoration of kainate-evoked current after topiramate's phase II block ([1]; applied subsequent to topiramate phase II block): partially or totally restored the kainate-evoked current

C=C1[C@@H](O)[C@@H]2O[C@]3(CC[C@H](/C=C/[C@@H](C)[C@@H]4CC(C)=C[C@@]5(O[C@H](C[C@@](C)(O)C(=O)O)CC[C@H]5O)O4)O3)CC[C@H]2O[C@@H]1[C@@H](O)C[C@H](C)[C@H]1O[C@@]2(CCCCO2)CC[C@H]1C [okadaic acid]
effect on kainate-evoked current prior to application of topiramate ([1]; 1 micromolar): little effect
effect on topiramate's initial antagonistic effect (phase I block) [1, 5]: did not affect
effect on topiramate's phase II block [1, 5]: phase II block was prevented

CC1(C)O[C@@H]2[C@@H](CO[C@@]3(COS(N)(=O)=O)OC(C)(C)O[C@@H]23)O1 [topiramate, 2,3:4,5-bis-O-(1-methylethylidene)-β-D-fructopyranosesulfamate]
block of seizures [2]: effectively block seizures
efficacy in simple and complex partial seizures and secondarily generalized seizures [3]: effective as adjunctive therapy or as monotherapy
EC50 ([1]; phase I block (early, reversible), read-out: EC50 of block of kainate-evoked current, first phase (phase I block)): ~1000 nM
EC50 ([1]; phase II block (constant application more than 10 min), read-out: EC50 of block of kainate-evoked current, second phase (phase II block)): ~1000 nM
onset of partial block of kainate-evoked current ([1]; kainate pulsed 3 sec at 1 min intervals, topiramate applied constantly): evident within one min
concentration required for a maximum response, phase I block ([1]; phase I block): approximately 0.1 mM
concentration required for a maximum response, phase II block ([1]; phase II block): approximately 0.010 mM
magnitude of antagonistic effect on kainate-induced membrane currents after prolonged application ([1]; topiramate applied constantly for more than 10 min): increased markedly
kainate-evoked current after withdrawal following prolonged application ([1]; topiramate applied more than 10 min, then withdrawn): remained depressed
reversibility of early block on washout ([1]; topiramate withdrawn (washed out) within 5 min): readily reversed
dependence of antagonistic effect on membrane potential ([1]; voltage-clamped potentials -60 mV to +60 mV at 20 mV increments): most effective at membrane potentials near the resting state
block of seizures [4]: effectively block seizures
